According to patent USRE42014E1, “Pharmaceutical compositions” (Novartis AG, priority 1996, dated 2010):

Key:
[1] = per 100 ml of a 10% fat emulsion
Protocol: (§1) The solubilization efficacy was determined by filtering the drug loaded fat emulsion through a 0.2 micron Nuclepore filter. Drug compound which is not solubilized was held back by the filter and determined gravimetrically and/or by HPLC measurements.

[2] = Solubilization of active agent in fat emulsions: filtration through 0.2 micron Nuclepore filter, retained drug determined gravimetrically and/or by HPLC
Protocol: as §1
Further sodium oleate was used, instead of POPG.Na.
Propylene glycol was then used to replace a part of the ethanol content.

With `C/C=C/C[C@@H](C)C(=O)[C@H]1C(=O)N[C@@H](C(C)C)C(=O)N(C)CC(=O)N(C)[C@@H](CC(C)C)C(=O)N[C@@H](C(C)C)C(=O)N(C)[C@@H](CC(C)C)C(=O)N[C@@H](C)C(=O)N[C@H](C)C(=O)N(C)[C@@H](CC(C)C)C(=O)N(C)[C@@H](CC(C)C)C(=O)N(C)[C@@H](C(C)C)C(=O)N1C` [PSC 833, [3′-desoxy-3′-oxo-MeBmt]^1-[Val]^2-Ciclosporin] the “PSC 833 solubilized by 100 ml of a 10% fat emulsion” value [1] was “up to 2 gram”, the “PSC 833 solubilized” value ([2]; plain PSC 833 solution in ethanol injected into a fat emulsion, after 30 minutes, no stabiliser) was 87% and the “PSC 833 retained on the filter” value ([2]; with POPG.Na or sodium oleate, after 5 minutes, determined by HPLC) was “less than 0.1%”.
